Measurements as given in patent US9518107B2, “Pharmaceutical compositions containing polypeptides derived from α-1 antitrypsin and methods of use thereof” (YISSUM RESEARCH DEVELOPMENT COMPANY OF THE HEBREW …, priority 2010, dated 2016).

Assays:
Human CD4 cells = test: Cytokine profile in human CD4+ cells activated with anti CD3 and anti CD28 antibodies (Multiplex); assay type: cell-based; conditions: UBE 100 ng/ml, 72 hours
Experimental: Human CD4 cells were MACS separated from blood of healthy donors using the immunomagnetic separation system of Miltenyi, in accordance with manufacturer instructions. Cells were incubated (each well contained 0.5×106/0.5 ml) with human IL2 (100 U/ml) and human anti CD3 antibodies (1 ug/ml) and human anti CD28 antibodies (1 ug/ml) with or without UBE (100 ng/ml) for 72 hours in a CO2 (6%) incubator at 37° C. in multiwall plates. Thereafter plates were centrifuged and supernatants were collected and stored at −20° C. until cytokine analysis was conducted. Cytokines were determined by Multiplex system (BioRad). *p<0.02, **p<0.006 using students t-test for comparison between UBE-treated and control cells.

Female Balb/C mice = test: Ovalbumin-induced asthma in mice, eosinophils in bronchoalveolar lavage; assay type: in vivo; conditions: UBE i.n. 50 ng/mouse on days 24 and 27, one hour before OVA; day 29; FIG. 21
Experimental: 20 ul of 5% Ovalbumin (OVA) was added to 8.75 ml of sterile saline, which was then added stepwise to a solution of 1.25 ml of 40 mg/ml ImjectAlum (Pierce), and subjected to rocking at room temperature for 30-60 minutes, to facilitate optimal alum absorption to the Ovalbumin (Alum/Ova). Female Balb/C mice were then injected with 200 ul of Alum/Ova i.p, according to the following protocol:
On Days 0 and 14, mice were injected i.p with OVA/Alum.
On day 24 mice were injected intranasally (i.n.) with. UBE/saline (50 ng/50 μl/mouse, 25 μl to each nostril) and then after one hour, mice were injected i.n with OVA (50 μg/50 μl/mouse, 25 μl to each nostril).
On Day 27, mice were injected i.n. UBE/saline (50 ng/50 μl/mouse, 25 μl to each nostril) and then 1 hour subsequently were again injected i.n. with OVA (50 μg/50 μl/mouse). Mice were then sacrificed on day 29, and bronchoalveolar fluid was obtained by lung lavage (1 ml of 10% FCS-heat inactivated in PBS), and the percent of eosinophils seen in lavage fluid versus white cell count was ascertained by microscopic evaluation of smears.

Female NZBW/F1 mice = test: Spontaneous lupus-like syndrome in NZBW/F1 mice (second SLE model); assay type: in vivo
Experimental: Female NZBW/F1 mice develop a lupus-like syndrome spontaneously. UBE (SEQ ID NO:2) (0.3 μg/kg) was administered to female NZBW/F1 mice daily (except for Saturday and Holidays), starting at the indicated time point (170 days) (n=10). Urine was obtained by spontaneous urination and the levels of protein (mg/dl) in the urine were evaluated throughout the treatment period using commercial sticks.
Quantitative histopathology analysis of the kidneys and lungs were also performed for this model (FIG. 12A-D). Kidneys were removed from control and UBE treated mice (0.3 lug/kg) then fixed in formalin, sliced, and stained by H&E. Representative histophathologies of the control versus UBE treated mice is shown FIGS. 12A versus 12B at 10× magnification, respectively. Note glomerular sclerosis (GS), thickening glomerular mesangium (G), protein accumulation in tubular lumen (PC), interstitial fibrosis (I) and perivascular lymphoid infiltration (lymphoid) in the control (12A) while normal appearance of kidney in the UBE-treated group (12B). The quantitative histopathology analysis with regard to tubular and interstitial damage is presented in FIG. 12C and FIG. 12D, respectively.
Quantitative histopathology analysis of the lungs was also performed for this model (FIG. 12E-G). Representative histophathologies of control versus UBE treated mice (0.3 μg/kg) is shown FIGS. 12E versus 12F at 10× magnification, respectively. Note heavy perivascular lymphoid infiltration (lymphoid) in the control samples (FIG. 12E) while normal appearance in the UBE-treated group (FIG. 12F).
In order to determine the levels of anti-dsDNA antibodies, blood was obtained by cardiac puncture of the NZBW/F1 mice at the indicated endpoint in UBE treatment, and the serum levels of anti-dsDNA antibodies and BLys (B lymphocyte stimulator) levels were determined by ELISA using a commercial kit (R&D Systems, Minneapolis, Minn., USA).
To evaluate the effect of UBE on lymphocyte function in NZBW/F1 mice, spleen cells and blood samples were isolated from control and UBE-treated (0.3 microgram per kilogram) mice and subjected to FACS analysis of double negative CD4−CD8− (expressed as percent CD3+) (FIG. 14).
Blood cells were similarly evaluated and representative results from control and UBE treated animals (0.3 μg/kg) are shown in FIGS. 14D and 14E, respectively.

Female C57BL/6 mice = test: Experimental autoimmune encephalitis (EAE), MOG 35-55 induced, neurological score; assay type: in vivo; conditions: thrice a week
Experimental: (§1) Female C57BL/6 mice were injected subcutaneously into 4 sites on the back, adjacent to each of the forelimbs and hindlimbs (total amount 200 μl) with a myelin oligodendritic glycoprotein (MOG) 35-55 fragment emulsified with complete Freund's adjuvant. Thereafter, each animal was i.p. injected with pertusis toxin (PTX; 200 ng/mouse) in PBS and an additional
PTX injection was repeated 2 days later, which is a standard protocol for initiating experimental autoimmune encephalomyelitis (EAE) in mice. UBE polypeptide (SEQ ID NO:2) was intraperitoneally (i.p.) injected (0.3 μg/kg, thrice a week) five days after MOG immunization (day of onset of symptoms). The animals were evaluated for neurological score from 0 (no effect) to 6 (severe neurological symptoms including paralysis). Results are the mean±SE of neurological score (sum of all scores divided by the number of animals in each experimental group) at each of the indicated time intervals after MOG injection.
as §1, with “additional PTX injection was repeated 2 days later. Four days after MOG immunization, each mouse received i.p. injections (1 μg/kg, thrice a week) of each of the following polypeptides:” for “additional”
The animals were evaluated for neurological score from 0 (no effect) to 6 (severe neurological symptoms including paralysis). Results are the mean±SE of neurological score (sum of all scores divided by the number of animals in each experimental group) at each of the indicated time intervals after immunization.

SMPPIVRFDHPFLFIIFEEHTQSPLFVGKVVDPTHK (listed as Mus musculus) [UBE, 36-mer peptide corresponding to residues 378-413 of Mus musculus alpha-1-antitrypsin (serpin a1c)]
inflammatory mediators overall (IL6, IL17A, IL21, IL22, IL23, IL31, IFNγ) (Human CD4 cells; FIG. 22A-G): overall trend in reduced inflammatory mediators
IL22 production (Human CD4 cells; FIG. 22D): significantly reduced
IL23 production (Human CD4 cells; FIG. 22E): significantly reduced
IL31 production (Human CD4 cells; FIG. 22F): significantly reduced
eosinophil concentration in lavage fluid (percent of eosinophils versus white cell count) (Female Balb/C mice): dramatic reduction
rise in urinary protein levels (proteinuria) (Female NZBW/F1 mice; UBE 0.3 μg/kg daily from 170 days, FIG. 11A): abrogated
pathological score of the tubular areas (kidney histopathology) (Female NZBW/F1 mice; UBE 0.3 μg/kg, FIG. 12C): significant reduction
pathological score of the interstitial areas (kidney histopathology) (Female NZBW/F1 mice; UBE 0.3 μg/kg, FIG. 12D): significant reduction
pathological score, lung parenchymal damage (Female NZBW/F1 mice; UBE 0.3 μg/kg, FIG. 12G): significant reduction
serum BLys (B lymphocyte stimulator) level, ELISA (Female NZBW/F1 mice; UBE 0.3 μg/kg, FIG. 13A): significant reduction
serum anti-dsDNA antibody level, ELISA (Female NZBW/F1 mice; UBE 0.3 μg/kg, FIG. 13B): significant reduction
double negative CD4−CD8− cells, FACS (Female NZBW/F1 mice; blood, UBE 0.3 μg/kg, FIG. 14F): dramatically reduced
double negative CD4−CD8− cells (percent CD3+), FACS (Female NZBW/F1 mice; spleen, UBE 0.3 μg/kg, FIG. 14C): dramatically reduced
neurological symptoms (neurological score 0 to 6) (Female C57BL/6 mice; i.p. 0.3 μg/kg, from five days after MOG immunization, FIG. 2): reduced the neurological symptoms
neurological symptoms (neurological score 0 to 6) (Female C57BL/6 mice; i.p. 1 μg/kg, from four days after MOG immunization, FIG. 3): reduced the neurological symptoms
